Measured values reported in US7074789B2, “Kinase inhibitors” (Amgen Inc., priority 1999, dated 2006).

Experiments:
Assay type in all cases: biochemical
[1] = molecular target: T1, Hck-1 (Homo sapiens, UniProt P08631); assay: Kinase inhibition assay (33P transfer), Hck; details: Table 6, Hck-1 kinase inhibition class
T1 construct: Kinases are expressed as either kinase domains or full length constructs; made in house

[2] = molecular target: T2, ErbB4 (Homo sapiens, UniProt Q15303); assay: Kinase inhibition assay (33P transfer), ErbB4; details: read-out: ErbB4-1
T2 construct: Kinases are expressed as either kinase domains or full length constructs; made in house
T2 sequence (Q15303 26-1308, species assumed): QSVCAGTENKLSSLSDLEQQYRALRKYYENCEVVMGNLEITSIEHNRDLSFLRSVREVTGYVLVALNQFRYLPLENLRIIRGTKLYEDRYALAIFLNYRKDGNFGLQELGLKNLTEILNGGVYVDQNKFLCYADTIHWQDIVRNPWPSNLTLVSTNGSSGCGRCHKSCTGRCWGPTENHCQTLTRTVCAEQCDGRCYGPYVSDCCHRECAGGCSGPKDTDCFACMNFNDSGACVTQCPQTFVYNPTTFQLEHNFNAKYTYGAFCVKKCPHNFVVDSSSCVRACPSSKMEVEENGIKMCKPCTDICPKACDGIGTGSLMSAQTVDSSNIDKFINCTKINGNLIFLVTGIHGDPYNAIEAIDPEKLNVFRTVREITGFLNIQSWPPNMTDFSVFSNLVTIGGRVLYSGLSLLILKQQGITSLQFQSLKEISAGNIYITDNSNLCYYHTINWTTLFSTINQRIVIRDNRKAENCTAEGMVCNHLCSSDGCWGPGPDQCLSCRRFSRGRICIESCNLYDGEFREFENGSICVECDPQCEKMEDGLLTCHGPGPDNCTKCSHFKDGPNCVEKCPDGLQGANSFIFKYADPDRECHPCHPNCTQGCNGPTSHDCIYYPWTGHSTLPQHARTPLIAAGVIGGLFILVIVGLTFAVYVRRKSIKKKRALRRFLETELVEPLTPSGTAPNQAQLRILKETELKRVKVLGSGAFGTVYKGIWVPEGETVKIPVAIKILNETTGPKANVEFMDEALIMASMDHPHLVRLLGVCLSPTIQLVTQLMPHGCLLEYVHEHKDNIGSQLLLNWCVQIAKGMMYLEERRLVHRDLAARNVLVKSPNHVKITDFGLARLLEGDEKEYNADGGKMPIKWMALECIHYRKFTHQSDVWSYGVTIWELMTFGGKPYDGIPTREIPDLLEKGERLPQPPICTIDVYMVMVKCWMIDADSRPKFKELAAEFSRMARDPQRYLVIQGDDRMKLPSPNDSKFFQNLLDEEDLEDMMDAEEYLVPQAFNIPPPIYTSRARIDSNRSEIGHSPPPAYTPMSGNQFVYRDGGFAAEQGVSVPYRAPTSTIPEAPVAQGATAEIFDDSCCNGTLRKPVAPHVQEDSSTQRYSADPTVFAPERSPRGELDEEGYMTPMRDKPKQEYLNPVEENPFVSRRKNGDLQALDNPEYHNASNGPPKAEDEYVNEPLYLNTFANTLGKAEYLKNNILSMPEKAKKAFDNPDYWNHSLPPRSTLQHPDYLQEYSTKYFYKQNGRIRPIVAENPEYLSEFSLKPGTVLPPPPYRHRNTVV

[3] = molecular target: T3, Src (Homo sapiens, UniProt P12931); assay: Kinase inhibition assay (33P transfer), Src; details: Table 6, Src-1 kinase inhibition class
T3 construct: Kinases are expressed as either kinase domains or full length constructs; made in house
In short: (§1)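 IC50: inhibitor concentration lowering 33P incorporation into immobilised substrate by 50%. Label transferred from ATP to poly(Glu,Tyr) 4:1 or poly(Arg,Ser) 3:1 is measured after a 0.5% phosphoric acid wash by liquid scintillation.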

[4] = molecular target: T4, Itk (Homo sapiens, UniProt Q08881); assay: Kinase inhibition assay (33P transfer), Itk; details: Table 3; read-out: Itk-1
T4 construct: Kinases are expressed as either kinase domains or full length constructs; made in house
T4 sequence (Q08881 1-620): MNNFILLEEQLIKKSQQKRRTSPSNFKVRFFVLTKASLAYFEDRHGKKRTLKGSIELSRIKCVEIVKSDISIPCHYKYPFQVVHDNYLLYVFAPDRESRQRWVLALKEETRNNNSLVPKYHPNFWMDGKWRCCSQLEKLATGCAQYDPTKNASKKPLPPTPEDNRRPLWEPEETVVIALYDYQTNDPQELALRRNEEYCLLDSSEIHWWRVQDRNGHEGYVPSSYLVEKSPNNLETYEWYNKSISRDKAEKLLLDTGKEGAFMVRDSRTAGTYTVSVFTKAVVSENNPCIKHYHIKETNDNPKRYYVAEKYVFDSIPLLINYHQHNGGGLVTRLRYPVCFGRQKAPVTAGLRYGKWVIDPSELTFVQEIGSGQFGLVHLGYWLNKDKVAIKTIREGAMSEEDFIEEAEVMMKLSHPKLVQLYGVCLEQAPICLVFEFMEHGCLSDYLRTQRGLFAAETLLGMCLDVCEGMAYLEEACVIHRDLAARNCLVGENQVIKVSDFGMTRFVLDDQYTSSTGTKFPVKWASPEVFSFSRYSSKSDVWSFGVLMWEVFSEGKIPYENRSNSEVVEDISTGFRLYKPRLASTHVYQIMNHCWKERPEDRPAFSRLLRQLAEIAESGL
In short: as §1

[5] = molecular target: T5, Fyn (Homo sapiens, UniProt P06241); assay: Kinase inhibition assay (33P transfer), Fyn; details: read-out: Fyn-1
T5 construct: Kinases are expressed as either kinase domains or full length constructs; made in house
T5 sequence (P06241 whole entry, species assumed, the tested form may be a part): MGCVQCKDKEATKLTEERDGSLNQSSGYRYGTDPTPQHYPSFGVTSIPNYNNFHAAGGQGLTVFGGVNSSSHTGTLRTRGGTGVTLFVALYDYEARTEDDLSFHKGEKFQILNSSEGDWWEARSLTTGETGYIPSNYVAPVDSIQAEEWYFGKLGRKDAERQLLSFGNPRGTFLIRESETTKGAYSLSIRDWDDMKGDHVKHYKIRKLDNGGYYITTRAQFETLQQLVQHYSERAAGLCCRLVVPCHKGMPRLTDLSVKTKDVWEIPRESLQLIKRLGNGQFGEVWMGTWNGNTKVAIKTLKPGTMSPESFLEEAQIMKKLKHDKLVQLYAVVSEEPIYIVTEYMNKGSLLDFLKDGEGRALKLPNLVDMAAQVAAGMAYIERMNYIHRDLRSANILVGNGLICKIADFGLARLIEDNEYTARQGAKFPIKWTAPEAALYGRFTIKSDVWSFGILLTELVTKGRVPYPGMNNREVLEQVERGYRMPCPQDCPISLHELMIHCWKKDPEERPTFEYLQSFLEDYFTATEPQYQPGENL
In short: as §1

[6] = molecular target: T6, EGFR (Homo sapiens, UniProt P00533); assay: Kinase inhibition assay (33P transfer), EGFR; details: Table 2, kinase inhibition class; read-out: EGFR-1
T6 construct: Kinases are expressed as either kinase domains or full length constructs; made in house
T6 sequence (P00533 25-1210, species assumed): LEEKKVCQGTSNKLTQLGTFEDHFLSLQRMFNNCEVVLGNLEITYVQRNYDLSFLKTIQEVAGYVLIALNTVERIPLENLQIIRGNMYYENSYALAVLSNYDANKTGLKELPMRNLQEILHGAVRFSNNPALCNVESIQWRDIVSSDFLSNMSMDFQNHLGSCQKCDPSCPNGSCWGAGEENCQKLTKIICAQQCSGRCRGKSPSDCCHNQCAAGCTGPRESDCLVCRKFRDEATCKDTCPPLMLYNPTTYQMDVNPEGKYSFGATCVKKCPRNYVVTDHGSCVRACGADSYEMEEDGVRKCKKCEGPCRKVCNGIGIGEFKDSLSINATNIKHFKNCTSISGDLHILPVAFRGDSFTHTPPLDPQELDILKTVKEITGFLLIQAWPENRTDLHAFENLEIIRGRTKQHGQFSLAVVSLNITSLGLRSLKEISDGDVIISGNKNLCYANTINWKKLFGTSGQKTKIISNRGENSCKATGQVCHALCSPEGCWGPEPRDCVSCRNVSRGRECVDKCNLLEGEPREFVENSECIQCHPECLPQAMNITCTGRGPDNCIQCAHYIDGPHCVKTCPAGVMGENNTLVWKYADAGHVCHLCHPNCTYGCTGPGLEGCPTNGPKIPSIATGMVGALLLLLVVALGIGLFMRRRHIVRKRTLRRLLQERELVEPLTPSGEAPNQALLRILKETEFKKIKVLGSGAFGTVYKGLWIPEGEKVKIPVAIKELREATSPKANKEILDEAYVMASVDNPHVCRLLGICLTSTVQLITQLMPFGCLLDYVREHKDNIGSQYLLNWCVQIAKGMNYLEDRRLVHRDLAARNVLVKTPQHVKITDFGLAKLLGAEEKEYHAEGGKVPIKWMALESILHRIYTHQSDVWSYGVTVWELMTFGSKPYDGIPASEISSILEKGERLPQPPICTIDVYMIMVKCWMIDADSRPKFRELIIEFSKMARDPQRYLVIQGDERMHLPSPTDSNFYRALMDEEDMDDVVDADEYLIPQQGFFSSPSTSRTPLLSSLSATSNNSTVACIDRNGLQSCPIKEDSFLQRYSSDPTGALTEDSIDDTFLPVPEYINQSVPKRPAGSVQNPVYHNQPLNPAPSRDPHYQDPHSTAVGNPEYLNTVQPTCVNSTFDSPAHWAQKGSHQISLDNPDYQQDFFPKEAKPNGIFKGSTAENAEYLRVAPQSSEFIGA
In short: as §1

[7] = molecular target: T7, IGFR-1 (Homo sapiens, UniProt P08069); assay: Kinase inhibition assay (33P transfer), IGFR-1; details: Table 2, kinase inhibition class
T7 construct: Kinases are expressed as either kinase domains or full length constructs; made in house
T7 sequence (P08069 31-1367): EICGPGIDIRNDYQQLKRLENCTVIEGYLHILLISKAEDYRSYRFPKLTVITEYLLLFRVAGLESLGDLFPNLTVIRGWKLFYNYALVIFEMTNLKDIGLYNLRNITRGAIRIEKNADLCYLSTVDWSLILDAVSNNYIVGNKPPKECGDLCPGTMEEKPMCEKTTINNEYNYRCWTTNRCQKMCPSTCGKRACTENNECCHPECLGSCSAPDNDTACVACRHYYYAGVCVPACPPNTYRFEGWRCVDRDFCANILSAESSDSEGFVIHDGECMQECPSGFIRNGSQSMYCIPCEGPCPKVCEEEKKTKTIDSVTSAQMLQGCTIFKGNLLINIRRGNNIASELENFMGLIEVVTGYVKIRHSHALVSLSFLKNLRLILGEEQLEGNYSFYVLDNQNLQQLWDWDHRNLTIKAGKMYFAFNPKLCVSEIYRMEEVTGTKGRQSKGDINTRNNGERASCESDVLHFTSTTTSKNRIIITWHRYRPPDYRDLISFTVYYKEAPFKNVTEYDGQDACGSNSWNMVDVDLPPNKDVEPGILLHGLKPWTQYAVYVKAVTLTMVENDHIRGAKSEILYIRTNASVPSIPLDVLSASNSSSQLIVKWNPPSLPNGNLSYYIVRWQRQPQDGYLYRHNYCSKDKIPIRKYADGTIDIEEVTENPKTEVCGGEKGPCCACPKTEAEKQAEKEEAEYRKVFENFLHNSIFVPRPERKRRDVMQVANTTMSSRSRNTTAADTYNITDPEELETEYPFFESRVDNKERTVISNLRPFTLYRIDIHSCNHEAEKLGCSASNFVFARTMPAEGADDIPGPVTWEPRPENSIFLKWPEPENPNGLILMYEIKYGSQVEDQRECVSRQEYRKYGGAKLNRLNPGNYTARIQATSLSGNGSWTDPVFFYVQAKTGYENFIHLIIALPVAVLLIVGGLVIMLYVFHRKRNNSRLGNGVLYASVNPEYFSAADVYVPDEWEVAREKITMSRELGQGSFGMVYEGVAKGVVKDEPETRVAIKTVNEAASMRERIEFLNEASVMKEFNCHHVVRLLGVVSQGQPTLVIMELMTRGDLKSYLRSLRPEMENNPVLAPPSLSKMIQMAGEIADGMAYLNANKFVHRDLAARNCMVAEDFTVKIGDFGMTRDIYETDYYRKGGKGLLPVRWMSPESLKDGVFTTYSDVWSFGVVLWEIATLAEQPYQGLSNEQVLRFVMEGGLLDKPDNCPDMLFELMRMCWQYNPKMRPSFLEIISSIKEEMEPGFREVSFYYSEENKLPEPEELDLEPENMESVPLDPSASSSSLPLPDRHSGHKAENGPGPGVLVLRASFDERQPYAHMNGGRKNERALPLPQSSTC

[8] = molecular target: T8, EPHB4 (Homo sapiens, UniProt P54760); assay: Kinase inhibition assay (33P transfer), EPHB4; details: read-out: EPHB4-1
T8 construct: Kinases are expressed as either kinase domains or full length constructs; made in house
T8 sequence (P54760 16-987): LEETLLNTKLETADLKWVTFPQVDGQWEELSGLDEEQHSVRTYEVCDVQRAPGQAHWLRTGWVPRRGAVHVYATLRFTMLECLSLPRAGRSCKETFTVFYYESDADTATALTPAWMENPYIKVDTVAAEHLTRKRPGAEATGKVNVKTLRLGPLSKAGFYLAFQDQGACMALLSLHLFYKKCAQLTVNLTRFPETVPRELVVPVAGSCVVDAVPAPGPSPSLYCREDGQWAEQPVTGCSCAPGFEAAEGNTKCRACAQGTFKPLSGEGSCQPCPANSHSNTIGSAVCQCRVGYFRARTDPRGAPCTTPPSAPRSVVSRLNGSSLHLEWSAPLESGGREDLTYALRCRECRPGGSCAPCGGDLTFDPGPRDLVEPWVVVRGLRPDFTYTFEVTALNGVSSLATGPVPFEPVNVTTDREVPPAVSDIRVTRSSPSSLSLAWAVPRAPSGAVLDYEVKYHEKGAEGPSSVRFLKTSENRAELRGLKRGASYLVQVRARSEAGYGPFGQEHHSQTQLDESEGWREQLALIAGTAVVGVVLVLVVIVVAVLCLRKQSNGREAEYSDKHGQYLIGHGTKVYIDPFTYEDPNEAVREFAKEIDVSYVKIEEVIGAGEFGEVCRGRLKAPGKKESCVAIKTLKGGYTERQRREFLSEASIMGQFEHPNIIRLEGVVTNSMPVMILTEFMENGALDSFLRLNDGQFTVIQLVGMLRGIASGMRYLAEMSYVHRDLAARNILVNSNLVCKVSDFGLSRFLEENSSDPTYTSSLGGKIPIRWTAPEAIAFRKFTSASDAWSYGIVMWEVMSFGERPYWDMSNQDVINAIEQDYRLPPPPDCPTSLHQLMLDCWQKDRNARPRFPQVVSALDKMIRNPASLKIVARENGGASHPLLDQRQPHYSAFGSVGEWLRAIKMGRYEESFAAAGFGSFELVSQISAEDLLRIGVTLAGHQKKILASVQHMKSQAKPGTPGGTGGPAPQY

[9] = molecular target: T9, c-Met (Homo sapiens, UniProt P08581); assay: Kinase inhibition assay (33P transfer), c-Met; details: Table 2, kinase inhibition class; read-out: Met-1
T9 construct: Kinases are expressed as either kinase domains or full length constructs; made in house
In short: as §1

T1 sequence (P08631 whole entry, the tested form may be a part): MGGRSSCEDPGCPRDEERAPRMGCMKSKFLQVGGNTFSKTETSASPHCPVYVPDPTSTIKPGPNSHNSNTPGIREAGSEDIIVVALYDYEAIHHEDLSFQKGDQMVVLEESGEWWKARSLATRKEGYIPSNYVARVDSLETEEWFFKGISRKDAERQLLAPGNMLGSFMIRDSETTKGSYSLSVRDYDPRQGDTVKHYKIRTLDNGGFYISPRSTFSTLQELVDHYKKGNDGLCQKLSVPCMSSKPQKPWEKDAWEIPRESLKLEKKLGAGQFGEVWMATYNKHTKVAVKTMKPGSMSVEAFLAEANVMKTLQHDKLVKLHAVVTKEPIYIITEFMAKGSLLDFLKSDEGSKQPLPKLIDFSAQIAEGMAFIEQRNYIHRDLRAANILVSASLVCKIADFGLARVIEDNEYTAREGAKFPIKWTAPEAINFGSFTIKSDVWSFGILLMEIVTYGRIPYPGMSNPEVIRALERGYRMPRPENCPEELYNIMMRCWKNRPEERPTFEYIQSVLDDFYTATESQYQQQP

| SMILES | IC50 [1] [µM] | IC50 [2] [µM] | IC50 [3] [µM] | IC50 [4] [µM] | IC50 [5] [µM] | IC50 [6] [µM] | IC50 [7] [µM] | IC50 [8] [µM] | IC50 [9] [µM] |
| --- | --- | --- | --- | --- | --- | --- | --- | --- | --- |
| COc1ccc2c(ccn2-c2ncnc(Nc3cc(OC)c(OC)c(OC)c3)n2)c1 [Compound 196] | > 11 | > 11 | > 11 | > 11 | > 11 | 8.59 to 11 | 0.982 to 5.89 | > 11 | > 11 |
| COc1cc(Nc2ncnc(-n3ccc4cc(Cl)ccc43)n2)cc(OC)c1OC [Compound 198] | > 10.9 | > 10.9 | > 10.9 | > 10.9 | > 10.9 | > 10.9 | > 10.9 | > 10.9 | > 10.9 |
| COc1cc(Nc2ncnc(-n3ccc4ccc(Cl)cc43)n2)cc(OC)c1OC [Compound 237] | > 10.9 | > 10.9 | > 10.9 | > 10.9 | > 10.9 | 8.5 to 10.9 | < 0.971 | 8.5 to 10.9 | 5.83 to 8.5 |
| COc1cc(Nc2ncnc(-n3ccc4c(OC)cccc43)n2)cc(OC)c1OC [Compound 238] | > 11 | > 11 | > 11 | > 11 | > 11 | > 11 | > 11 | > 11 | > 11 |
| COc1cc(Nc2ncnc(-n3ncc4ccccc43)n2)cc(OC)c1OC [Compound 240] | > 11.9 | > 11.9 | 9.25 to 11.9 | > 11.9 | 1.06 to 6.34 | > 11.9 | > 11.9 | > 11.9 | > 11.9 |
| COc1ccc(Nc2ncnc(-n3c(N)nc4ccccc43)n2)cc1OC [Compound 285] | > 12.4 | > 12.4 | > 12.4 | > 12.4 | > 12.4 | > 12.4 | < 1.1 | > 12.4 | > 12.4 |
| COCCOc1ccc(Nc2ncnc(-n3c(N)nc4ccccc43)n2)cc1OC [Compound 287] | > 11 | > 11 | > 11 | 5.89 to 8.59 | > 11 | 8.59 to 11 | < 0.982 | > 11 | > 11 |
| COc1cc(Nc2ncnc(Nc3ccc(C)c(F)c3)n2)cc(OC)c1OC [Compound 300] | > 11.7 | 1.04 to 6.23 | < 1.04 | 6.23 to 9.08 | 1.04 to 6.23 | < 1.04 | < 1.04 | 1.04 to 6.23 | 6.23 to 9.08 |
| COc1cc(Nc2ncnc(Nc3nnc(-c4ccccc4)[nH]3)n2)cc(OC)c1OC [Compound 311] | > 10.7 | > 10.7 | > 10.7 | > 10.7 | > 10.7 | > 10.7 | > 10.7 | > 10.7 | 0.951 to 5.71 |
| COC(=O)c1sccc1Nc1ncnc(Nc2cc(OC)c(OC)c(OC)c2)n1 [Compound 315] | > 10.8 | 0.958 to 5.75 | > 10.8 | > 10.8 | > 10.8 | > 10.8 | > 10.8 | > 10.8 | 8.38 to 10.8 |

Second part, the molecule after the results:

| IC50 [1] [µM] | IC50 [2] [µM] | IC50 [3] [µM] | IC50 [4] [µM] | IC50 [5] [µM] | IC50 [6] [µM] | IC50 [7] [µM] | IC50 [8] [µM] | IC50 [9] [µM] | SMILES |
| --- | --- | --- | --- | --- | --- | --- | --- | --- | --- |
| > 10.6 | 5.65 to 8.25 | > 10.6 | > 10.6 | > 10.6 | > 10.6 | > 10.6 | > 10.6 | > 10.6 | COc1cc(Nc2ncnc(N3CCc4cc([N+](=O)[O-])ccc43)n2)cc(OC)c1OC [Compound 187] |
| > 9.31 | 4.96 to 7.24 | > 9.31 | > 9.31 | > 9.31 | > 9.31 | > 9.31 | > 9.31 | 7.24 to 9.31 | COc1cc(Nc2ncnc(-n3ccc4cc(OCc5ccccc5)ccc43)n2)cc(OC)c1OC [Compound 200] |
| > 10.3 | > 10.3 | > 10.3 | > 10.3 | > 10.3 | 8 to 10.3 | > 10.3 | > 10.3 | > 10.3 | COc1cc2ccn(-c3ncnc(Nc4cc(OC)c(OC)c(OC)c4)n3)c2cc1OC [Compound 239] |
| 0.94 to 5.64 | 0.94 to 5.64 | 0.94 to 5.64 | 0.94 to 5.64 | 0.94 to 5.64 | 0.94 to 5.64 | 5.64 to 8.23 | 0.94 to 5.64 | < 0.94 | COc1cc(Nc2ncnc(N3c4ccc(F)cc4CCC3C)n2)cc(OC)c1OC (stereo not drawn) [Compound 298] |
| > 9.97 | > 9.97 | > 9.97 | > 9.97 | > 9.97 | > 9.97 | < 0.886 | > 9.97 | > 9.97 | COCCOc1ccc(Nc2ncnc(-n3c(N)nc4ccccc43)n2)cc1OCCOC [Compound 302] |
| 6.46 to 9.42 | < 1.08 | < 1.08 | 9.42 to 12.1 | < 1.08 | < 1.08 | < 1.08 | 1.08 to 6.46 | 1.08 to 6.46 | COc1cc(Nc2ncnc(Nc3cccc(F)c3)n2)cc(OC)c1OC [Compound 304] |
| 5.21 to 7.6 | 0.869 to 5.21 | < 0.869 | > 9.77 | < 0.869 | 0.869 to 5.21 | 5.21 to 7.6 | 0.869 to 5.21 | 7.6 to 9.77 | COc1cc(Nc2ncnc(Nc3ccc(C)c(NS(C)(=O)=O)c3)n2)cc(OC)c1OC [Compound 305] |
| 8.62 to 11.1 | > 11.1 | 0.986 to 5.91 | > 11.1 | 0.986 to 5.91 | < 0.986 | < 0.986 | 0.986 to 5.91 | 5.91 to 8.62 | COc1cc(Nc2ncnc(Nc3ccc(Cl)cc3F)n2)cc(OC)c1OC [Compound 306] |
| 0.977 to 5.86 | 0.977 to 5.86 | < 0.977 | 0.977 to 5.86 | < 0.977 | < 0.977 | < 0.977 | < 0.977 | < 0.977 | COc1cc(Nc2ncnc(Nc3cc(-c4ccco4)n[nH]3)n2)cc(OC)c1OC [Compound 308] |
| 6.01 to 8.76 | < 1 | < 1 | 6.01 to 8.76 | 1 to 6.01 | 1 to 6.01 | < 1 | 1 to 6.01 | < 1 | COc1cc(Nc2ncnc(Nc3cc(C(C)(C)C)[nH]n3)n2)cc(OC)c1OC [Compound 313] |
| 6.01 to 8.76 | 1 to 6.01 | 1 to 6.01 | 1 to 6.01 | 1 to 6.01 | < 1 | > 11.3 | > 11.3 | 1 to 6.01 | COc1cc(Nc2ncnc(N3CCCC4CCCCC43)n2)cc(OC)c1OC (stereo not drawn) [Compound 314] |
